Reference: patent US20240400591A1 (Jacobio Pharmaceuticals Co., Ltd., priority 2021, published 2024)
Where two headings read alike, the source gives them in different places.

Legend:
[1] = target: T1, His-p53 Y220C (94-294) protein (Homo sapiens, UniProt P04637, Y220C); test: In vitro DNA binding assay (HTRF); type: biochemical; settings: % activation normalized to 2 μM Ref-1a high control
T1 construct: His-p53 Y220C (94-294) protein

NUGC3 (P53 Y220C) = test: Cell viability assay (CellTiter-Glo, 6 days), NUGC3; type: cell-based; settings: cell viability, 6 days, CellTiter-Glo, read-out: NUGC3 (P53 Y220C) IC50
How it was run: (§1)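 Cells seeded overnight at 37 °C, then exposed to compounds in medium for 6 days. Viability read by CellTiter-Glo luminescence, normalized to DMSO cell wells (high) and medium-only wells (low); IC50 taken as concentration giving 50% viability from 4-parameter logistic fit.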

NUGC4 (P53 WT) = test: Cell viability assay (CellTiter-Glo, 6 days), NUGC4; type: cell-based; settings: cell viability, 6 days, CellTiter-Glo, read-out: NUGC4 (P53 WT) IC50
How it was run: as §1

[2] = system: NUGC-3_P53_Luc single clonal cell line (p53 Y220C); test: Reporter gene assay (p53 RE luciferase); type: cell-based; settings: luciferase reporter, 6 hours, normalized to Ref-1a (10 μM) high control, read-out: p53(Y220C)_NUGC-3 EC50
How it was run: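 NUGC-3 cells stably carrying a p53 RE-driven luc2P reporter, washed free of phenol red, exposed to compound for 6 h at 37 °C; luminescence read. Activity normalised between DMSO (low) and Ref-1a 10 μM (high) controls; EC50 from 4-parameter logistic fit or Excel as concentration giving 50% activity.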

Row | Compound | EC50 [1] [nM] | IC50 (NUGC3 (P53 Y220C); Homo sapiens, NUGC-3, 144 h) [nM] | IC50 (NUGC4 (P53 WT); Homo sapiens, NUGC-4, 144 h) [µM] | EC50 ([2]; Homo sapiens, NUGC-3) [nM] | EC50 ([2]; Homo sapiens, NUGC-3, 6 h) [nM] | IC50 (NUGC3 (P53 Y220C)) [nM] | IC50 (NUGC4 (P53 WT)) [µM] | EC50 [2] [nM]
1 | CN1CC[C@@H](Nc2cccc3c(CC(F)(F)F)c(C#CCNc4ccc(P(C)(C)=O)cc4C(F)(F)F)sc23)[C@@H](F)C1 [Example 105, (4-((3-(7-(((3S,4R)-3-fluoro-1-methylpiperidin-4-yl)amino)-3-(2,2,2-trifluoroethyl)benzo[b]thiophen-2-yl)prop-2-yn-1-yl)amino)-3-(trifluoromethyl)phenyl)dimethylphosphine oxide] | 35 | 1830 | 10 | – | 200 | – | – | –
2 | CNC(=O)c1ccc(NCC#Cc2sc3c(N[C@H]4CCN(C)C[C@H]4F)cccc3c2CC(F)(F)F)c(OC)c1 [Example 112, 4-((3-(7-(((3R,4S)-3-fluoro-1-methylpiperidin-4-yl)amino)-3-(2,2,2-trifluoroethyl)benzo[b]thiophen-2-yl)prop-2-yn-1-yl)amino)-3-methoxy-N-methylbenzamide] | 135 | 2090 | 7.51 | – | 270 | – | – | –
3 | COc1cc(P(C)(C)=O)ccc1NCC#Cc1sc2c(N[C@@H]3CCN(C4CC4)C[C@@H]3F)cccc2c1CC(F)(F)F (racemic) [Example 74, (4-((3-(7-(((Z)-1-cyclopropyl-3-fluoropiperidin-4-yl)amino)-3-(2,2,2-trifluoroethyl)benzo[b]thiophen-2-yl)prop-2-yn-1-yl)amino)-3-methoxyphenyl)dimethylphosphine oxide] | 127 | 2050 | 2.73 | 250 | – | – | – | –
4 | COc1cc(C(N)=O)ncc1NCC#Cc1sc2c(NC3CCN(C)CC3F)cccc2c1CC(F)(F)F (stereo not drawn) [Example 61, 5-((3-(3-(2,2,2-trifluoroethyl)-7-(((Z)-3-fluoro-1-methylpiperidin-4-yl)amino)benzo[b]thiophen-2-yl)prop-2-yn-1-yl)amino)-4-methoxypicolinamide] | 102 | – | – | – | – | 4530 | 13 | 530
5 | COc1cc(P(C)(C)=O)ccc1NCC#Cc1sc2c(NC3CCN(C)CC3F)cccc2c1CC#N (racemic) [Example 107, 2-(2-(3-((4-(dimethylphosphoryl)-2-methoxyphenyl)amino)prop-1-yn-1-yl)-7-(((Z)-3-fluoro-1-methylpiperidin-4-yl)amino)benzo[b]thiophen-3-yl)acetonitrile] | 60 | 7250 | 20.6 | 960 | – | – | – | –
6 | CNC(=O)c1ccc(NCC#Cc2sc3c(N[C@@H]4CCN(C)C[C@@H]4F)cccc3c2CC(F)(F)F)c(OCCOC)c1 (racemic) [Example 81, 4-((3-(7-(((Z)-3-fluoro-1-methylpiperidin-4-yl)amino)-3-(2,2,2-trifluoroethyl)benzo[b]thiophen-2-yl)prop-2-yn-1-yl)amino)-3-(2-methoxyethoxy)-N-methylbenzamide] | 87 | 1680 | 8.64 | 290 | – | – | – | –
7 | CN1CC[C@@H](Nc2cccc3c(CC(F)(F)F)c(C#CCNc4ccc(P(C)(C)=O)cc4OC(F)(F)F)sc23)[C@@H](F)C1 [Example 138, (4-((3-(7-(((3S,4R)-3-fluoro-1-methylpiperidin-4-yl)amino)-3-(2,2,2-trifluoroethyl)benzo[b]thiophen-2-yl)prop-2-yn-1-yl)amino)-3-(trifluoromethoxy)phenyl)dimethylphosphine oxide] | 34 | 880 | 11.1 | – | 70 | – | – | –
8 | CN1CC[C@@H](Nc2cccc3c(CC(F)(F)F)c(C#CCNc4ccc(P(C)(C)=O)cc4-c4cnco4)sc23)[C@@H](F)C1 [Example 214, (4-((3-(7-(((3S,4R)-3-fluoro-1-methylpiperidin-4-yl)amino)-3-(2,2,2-trifluoroethyl)benzo[b]thiophen-2-yl)prop-2-yn-1-yl)amino)-3-(oxazol-5-yl)phenyl)dimethylphosphine oxide] | 38 | 380 | 13.9 | – | 100 | – | – | –
9 | COc1cc(P(C)(C)=O)ccc1NCC#Cc1sc2c(N[C@@H]3CCN(C)C[C@H]3C)cccc2c1CC(F)(F)F [Example 128, (4-((3-(7-(((3R,4R)-1,3-dimethylpiperidin-4-yl)amino)-3-(2,2,2-trifluoroethyl)benzo[b]thiophen-2-yl)prop-2-yn-1-yl)amino)-3-methoxyphenyl)dimethylphosphine oxide] | 53 | 870 | 2.26 | – | 100 | – | – | –
10 | CN1CC[C@@H](Nc2cccc3c(CC(F)(F)F)c(C#CCNc4ccc(P(C)(C)=O)cc4Cl)sc23)[C@@H](F)C1 (racemic) [Example 83, (3-chloro-4-((3-(7-(((Z)-3-fluoro-1-methylpiperidin-4-yl)amino)-3-(2,2,2-trifluoroethyl)benzo[b]thiophen-2-yl)prop-2-yn-1-yl)amino)phenyl)dimethylphosphine oxide] | 40 | 1310 | 7.96 | – | 210 | – | – | –

Second part, led by results:

Row | EC50 [1] [nM] | Compound | IC50 (NUGC3 (P53 Y220C); Homo sapiens, NUGC-3, 144 h) [nM] | IC50 (NUGC4 (P53 WT); Homo sapiens, NUGC-4, 144 h) [µM] | EC50 ([2]; Homo sapiens, NUGC-3) [nM] | EC50 ([2]; Homo sapiens, NUGC-3, 6 h) [nM] | IC50 (NUGC3 (P53 Y220C)) [nM] | IC50 (NUGC4 (P53 WT)) [µM] | EC50 [2] [nM]
11 | 82 | COc1cc(P(C)(C)=O)ccc1NCC#Cc1sc2c(N[C@@H]3CCN(C4CCCC4)C[C@@H]3F)cccc2c1CC(F)(F)F (relative stereo) [Example 104, (4-((3-(7-(((Z)-1-cyclopentyl-3-fluoropiperidin-4-yl)amino)-3-(2,2,2-trifluoroethyl)benzo[b]thiophen-2-yl)prop-2-yn-1-yl)amino)-3-methoxyphenyl)dimethylphosphine oxide] | 1380 | 1.75 | 240 | – | – | – | –
12 | 71 | COCC(O)CN1CC[C@@H](Nc2cccc3c(CC(F)(F)F)c(C#CCNc4ccc(P(C)(C)=O)cc4OC)sc23)[C@@H](F)C1 (relative stereo) [Example 97, 1-[(Z)-4-[[2-[3-(4-dimethylphosphoryl-2-methoxy-anilino)prop-1-ynyl]-3-(2,2,2-trifluoroethyl)benzothiophen-7-yl]amino]-3-fluoro-1-piperidyl]-3-methoxy-propan-2-ol] | 960 | 5.72 | 150 | – | – | – | –
13 | 27 | CN1CC[C@@H](Nc2cccc3c(CC(F)(F)F)c(C#CCNc4ccc(P(C)(C)=O)cc4C(N)=O)sc23)[C@@H](F)C1 [Example 199, 5-(dimethylphosphoryl)-2-((3-(7-(((3S,4R)-3-fluoro-1-methylpiperidin-4-yl)amino)-3-(2,2,2-trifluoroethyl)benzo[b]thiophen-2-yl)prop-2-yn-1-yl)amino)benzamide] | 360 | 49 | 60 | – | – | – | –
14 | 58 | COc1cc(P(C)(C)=O)ccc1NCC#Cc1sc2c(NC3CC4CN(C)CC4C3)cccc2c1CC(F)(F)F (stereo not drawn) [Example 182] | 2030 | 3.74 | 480 | – | – | – | –
15 | 59 | COc1cc(P(C)(C)=O)ccc1NCC#Cc1sc2c(NC3C(C)CN(C)CC3C)cccc2c1CC(F)(F)F (stereo not drawn) [Example 132, (3-methoxy-4-((3-(3-(2,2,2-trifluoroethyl)-7-(((E)-1,3,5-trimethylpiperidin-4-yl)amino)benzo[b]thiophen-2-yl)prop-2-yn-1-yl)amino)phenyl)dimethylphosphine oxide] | – | – | – | – | 820 | 3.08 | 260
16 | 117 | CN1CC[C@@H](Nc2cccc3c(CC(F)(F)F)c(C#CCNC(=O)c4ccn(C(C)(C)C)c4)sc23)[C@@H](F)C1 (racemic) [Example 130, 1-tert-butyl-N-[3-[7-[((Z)-3-fluoro-1-methyl-4-piperidyl)amino]-3-(2,2,2-trifluoroethyl)benzothiophen-2-yl]prop-2-ynyl]pyrrole-3-carboxamide] | 3550 | 6.85 | 360 | – | – | – | –
17 | 35 | CN1CC[C@@H](Nc2cccc3c(CC(F)(F)F)c(C#CCNc4ccc(P(C)(C)=O)cc4OC4CC4)sc23)[C@@H](F)C1 [Example 150, (3-cyclopropoxy-4-((3-(7-(((3S,4R)-3-fluoro-1-methylpiperidin-4-yl)amino)-3-(2,2,2-trifluoroethyl)benzo[b]thiophen-2-yl)prop-2-yn-1-yl)amino)phenyl)dimethylphosphine oxide] | 390 | 9.92 | 80 | – | – | – | –
18 | 64 | COc1cc(P(C)(C)=O)ccc1NCC#Cc1sc2c(NC3CCN(CC4CC4)C[C@@H]3F)cccc2c1CC(F)(F)F (mixture of isomers) [Example 102, (4-((3-(7-(((Z)-1-(cyclopropylmethyl)-3-fluoropiperidin-4-yl)amino)-3-(2,2,2-trifluoroethyl)benzo[b]thiophen-2-yl)prop-2-yn-1-yl)amino)-3-methoxyphenyl)dimethylphosphine oxide] | 810 | 1.92 | 110 | – | – | – | –
